The source of these data is US8889615B2, “Methods for promoting epithelialization and healing of chronic wounds” (New York University, priority 2009, dated 2014).

The test system of one test is β-catenin. As to the kind of experiment: β-catenin nuclearization in primary human epidermal keratinocytes (immunostaining, β-catenin y142). The test is classed as cell-based. Particulars: 0.1 μmol/L dexamethasone; 200 nM Calphostin C or 10 μM RU486. The protocol: Topical GC treatment of human skin cepsimens was performed by daily applica-tion of Cormax (Clobetasol Propionate Cream 0.05%; Oclassen Pharmaceuticals, Inc.) using a sterile Q-tip applicator. Samples were fixed in formalin and processed for paraffin embedding following by sectioning to obtain 5-μm-thick sections. Keratinocytes were grown on chamber slides to 70% confluency (Lab-Tek, Naperville, Ill.) and treated with 0.1 μmol/L dexamethasone (Sigma) and incubated in the presence or absence of 200 nM Calphostin C or 10 μM RU486. Cells were fixed in 70% methanol for 10 minutes and permeabilized with 0.1% Triton X-100 for 10 minutes. Human tissues were stained with β-catenin antibody β-catenin phosphorylated Ab (Tyr- 142) (AbCam) at 1:1500 dilution in 5% bovine serum albumin and visualized using a secondary fluorescein isothiocyanate anti-mouse IgG antibody 1:150 (Sigma). All sections were mounted with mounting media. All negative controls were prepared by substitution of the primary antibody with an irrelevant antibody. The sections were analyzed using a Carl Zeiss microscope (Carl Zeiss, Thornwood, N.Y.) and digital images were collected using Adobe TWAIN—32 program.

The subject of test [1] is LEF/TCF-mediated transcription. As to the kind of experiment: SuperTopFlash Tcf/Lef luciferase reporter assay in primary human keratinocytes. The test is classed as cell-based. Particulars: 24 hours; for dexamethasone-mediated induction of LEF/TCF-mediated transcription: Dexamethasone 1 μM with RU486 10 μM or Calphostine C 200 nM. The protocol:
Primary human keratinocytes were plated into 6-well plates and grown to 70% confluence in defined serum-free keratinocyte medium supplemented with epidermal growth factor and bovine pituitary extract (keratinocyte-SFM, GIBCO). Prior to transfection cells were transferred to basal serum—free medium (GIBCO) for 6 h, and then transfected with Tcf/Lef transcriptional activation reporter construct SuperTopFlash (Masckauchán, Mol. Biol. Cell, 17(12):5163-5172 (2006)) containing Tcf responsive elements and renilla-luciferase construct. Transfections were performed in triplicates using 3 μg of reporter plasmid, 0.2 μg of renilla-luciferase plasmid with a FuGene 6 transfection reagent (Roche), following manufacturer's instructions for procedure. Cells were incubated at 37° C. for over night with transfection cocktail and than treated with Dexamethasone (1 μM), RU486 (10 μM) and Calphostine C (200 nM) for 24 hours. Cell lysates were prepared the next day and both firefly and renilla luciferase activities were evaluated using Dual-Luciferase Reporter Assay System (Promega, Madison, Wis.). Samples were read in a luminometer and values were normalized for transfection efficiency using renilla-luciferase activity.

In the next test the test system is c-myc. As to the kind of experiment: c-myc Western blot in HEK. The test is classed as cell-based, human. The settings on record: DEX 1 μM with Calphostine C or RU486 10 μM, 4 hours. The protocol:
Extracts for immunoblotting were prepared from a subconfluent 100 mm plate of normal HEK treated with DEX (1 μM), Calphostine C and RU486 (10 μM) or an equal volume of ethanol vehicle 4 hours prior to lysis. Cells were placed on ice; washed twice with phosphate-buffer saline (PBS); and lysed in 0.5 ml of modified RIPA buffer containing 50 mM Hepes, pH 7.5, 150 mM NaCl, 1 mM EDTA, 1 mM EGTA, 1 mM NaF, 1% Triton X-100, 10% glycerol, and additional protease and phosphatase inhibitors (1 mM phenylmethylsulfonyl fluoride, 20 mM glycerophosphate, 8 mM sodium pyrophosphate, 1 μg/ml leupeptin, 1 μg/ml pepstatin A, and 1 μg/ml aprotinin (Roche, Indianapolis, Ind.)) through fine needle aspiration. Lysates were centrifuged at 13,000 rpm for 10 min at 4° C. The soluble supernatants were normalized for total protein concentration using the Bradford protein assay, and the samples were stored at −20° C. Cell extracts were boiled for 5 minutes in Leammli sample buffer, were separated by 10% SDS-PAGE and transferred to nitrocellulose membrane (VWR, Batavia, Ill.) on 100 V for 1 hour in Tris/glycine transfer buffer. […] Western blot quantification was done using Total Lab Program (Non-linear dynamics Inc., NC).
A general note: A western blot detects proteins with antibodies after separation by electrophoresis.

Test [2] relates to wounded human skin. As to the kind of experiment: Human skin wound model, topical treatment, epithelialization by planimetry. The test is classed as cell-based. The settings on record: topical DEX 1 μM + Calphostine C 200 μM, 6 days. How it is done:
Wounds were created using 4-mm punch biopsies through the reticular dermis and incubated on the air-liquid interface, as previously described. Immediately upon wounding cells were treated topically with dexamethasone (DEX) (1 μM), Calphostine C (CC) (200 μM) and the combination, DEX+CC and maintained on the air-liquid interface for 6 days. All specimens were frozen in OCT compound (Tissue Tek, Reading; Calif.) for immunocytochemistry. Wounds were quantified by planimetry as described previously (Tomic-Canic, et al., Wound Repair Regen., 15(1):71-9 (2007)).

Another test has as its target protein kinase C. Particulars: cited from earlier work.
The subject of the next test is GSK3β. As to the kind of experiment: Phospho-GSK3β (Ser 9) Western blot in keratinocytes. The settings on record: DEX 1 μM with GO6979 400 μM, RU486 10 μM or U73122 10 μM. The test is classed as cell-based, human. The protocol:
Extracts for immunoblotting were prepared from a subconfluent 100 mm plate of normal HEK treated with DEX (1 μM), Calphostine C and RU486 (10 μM) or an equal volume of ethanol vehicle 4 hours prior to lysis. Cells were placed on ice; washed twice with phosphate-buffer saline (PBS); and lysed in 0.5 ml of modified RIPA buffer containing 50 mM Hepes, pH 7.5, 150 mM NaCl, 1 mM EDTA, 1 mM EGTA, 1 mM NaF, 1% Triton X-100, 10% glycerol, and additional protease and phosphatase inhibitors (1 mM phenylmethylsulfonyl fluoride, 20 mM glycerophosphate, 8 mM sodium pyrophosphate, 1 μg/ml leupeptin, 1 μg/ml pepstatin A, and 1 μg/ml aprotinin (Roche, Indianapolis, Ind.)) through fine needle aspiration. Lysates were centrifuged at 13,000 rpm for 10 min at 4° C. The soluble supernatants were normalized for total protein concentration using the Bradford protein assay, and the samples were stored at −20° C. Cell extracts were boiled for 5 minutes in Leammli sample buffer, were separated by 10% SDS-PAGE and transferred to nitrocellulose membrane (VWR, Batavia, Ill.) on 100 V for 1 hour in Tris/glycine transfer buffer. The membranes were blocked for 30 minutes in 5% bovine serum albumin in blocking solution (Tris-buffered saline (TBS, pH 7.4) at room temperature and then incubated in blocking solution with primary antibody at 4° C. overnight using 1:500 of serum for anti-c-myc antibody (Santa Cruz). The membranes were washed three times for 5 minutes with TBS and 0.1% Triton X-100 and twice with TBS and incubated for 1 hour at room temperature with horseradish peroxidase-conjugated secondary antibody (Santa Cruz, Calif.). Blots were then washed three times for 5 minutes with TBS and 0.1% Triton X-100 and developed using Super Signal West Pico Chemiluminescent substrate (Pierce, Rockford, Ill.) and exposed on x-ray film (Eastman Kodak Co. Bio Max MR-Film) according to the manufacturer's instructions. For loading control we used anti b-tubulin antibody (Santa Cruz, Santa Cruz, Calif.). Western blot quantification was done using Total Lab Program (Non-linear dynamics Inc., NC). […]

In a further test the target is protein kinase C (PKC). Particulars: rat brain; cited from earlier work.
Test [3] concerns Ca^2+-independent PKC d-, e-, and z-isozymes. The settings on record: even at micromolar levels; cited from earlier work.
Test [4] relates to Primary human keratinocytes. As to the kind of experiment: Keratinocyte migration, wound scratch assay. The test is classed as cell-based. How it is done: Primary human keratinocytes were grown to 80% confluency. Twenty-four hours before the experiment cells were transferred to basal KBM medium (Life Technologies, Inc., Grand Island, N.Y.). Before the scratch, cells were treated with 8 μg/ml mitomycin C (ICN, Irvine, Calif.) for 1 hour and washed with basal media. Scratches were performed as previously described (Lee, et al., J Mol. Biol., 345:1083-1097 (2005)). Cells were incubated with 20 μmol/L LiCl or 25 ng/ml of EGF for 24 and 48 hours, rephotographed, and cell migration was quantified as previously described (Lee, et al., J. Mol. Biol., 345:1083-1097 (2005); Zavadil. et al., EMBO J., 23:1155-1165 (2004)). Thirty measurements were taken for each experimental condition and distance coverage by cells moving into the scratch wound area was quantified. Three images were analyzed per condition, per time point, and averages and standard deviations were calculated.

For test [5], the system named is wounded human skin. As to the kind of experiment: Human skin ex vivo wound model with LiCl. The test is classed as cell-based. Particulars: 4 mm punch wound, air-liquid interface, 20 mmol/L LiCl, 4 days. The source says: Wounds were created using 4-mm punch biopsies through the reticular dermis and a rim of cells participating in wound healing was collected by re-punching around the initial wounded area. Each time point was collected in parallel with an unwounded skin specimen of the same donor. All specimens were collected and either stored in RNAlater (Ambion, Austin, Tex.) or frozen in OCT compound (Tissue Tek, Reading, Calif.) for immunocytochemistry. To activate β-catenin, wounded skin was maintained on the air-liquid interface in the presence or absence of 20 mmol/L LiCl (Shimm, et al., J. Biol. Chem., 278:19674-19681 (2003)). Wounds were quantified by planimetry as described previously (Stojadinovic, et al., Am. J. Pathol., 167(1):59-69 (2005)).

The subject of a further test is PLC. Particulars: human platelets and neutrophils; read-out: IC50, agonist-induced PLC activation; cited from earlier work.

Entries after “also recorded” stand apart in the source; their conditions may differ.

Usually IC50 stands for the concentration that inhibits the measured activity by half.

As to `COc1c(CC(C)OC(=O)Oc2ccc(O)cc2)c2c3c(CC(C)OC(=O)c4ccccc4)c(OC)c(=O)c4c(O)cc(OC)c(c5c(OC)cc(O)c(c1=O)c52)c43` (stereo not drawn) [Calphostin C], the “GC-mediated nuclearization (activation) of β-catenin” value in the test on β-catenin is “blocked”. For the same molecule, the “dexamethasone-mediated induction of LEF/TCF-mediated transcription” value in test [1] was “blocked”. Moreover, the GCs-mediated c-myc activation result in the test on c-myc was “blocked”. For the same molecule, the “dexamethasone-mediated inhibition of epithelialization” value in the test with wounded human skin [2] is “rescues”. Further, at protein kinase C, the IC50 was 0.05 µM.
For the molecule `Cn1c2ccccc2c2c3c(c4c5ccccc5n(CCC#N)c4c21)CNC3=O` [Go 6976, 12-(2-Cyanoethyl)-6,7,12,13-tetrahydro-13-methyl-5-oxo-5H-indolo(2,3-a)pyrrolo(3,4-c)-carbazole], in the test with GSK3β, the “dexamethasone-mediated phosphorylation of GSK3β” value is “block”. For the same molecule, the concentration for half-maximal inhibition (IC50) at protein kinase C (PKC) is 0.0079 µM. Further, the “effect on kinase activity of Ca^2+-independent PKC d-, e-, and z-isozymes” value in test [3] was “does not affect”.
`[Cl-].[Li+]` [LiCl]: the keratinocyte migration entry in [4] (20 μmol/L LiCl or 25 ng/ml of EGF, 24 and 48 hours) is recorded as “inhibited”. The EGF-stimulated keratinocyte migration result in test [4] (LiCl with EGF) is “efficiently blocked”. Also, the “wound healing (planimetry, histology)” value in the test on wounded human skin [5] is reported as “completely inhibited”. Moreover, the “LEF/TCF-mediated transcription (TopFlash activity)” value in [1] (agent alone, Dexamethasone 1 μM) is listed as “increase activity”.
Consider `CC#C[C@]1(O)CC[C@H]2[C@@H]3CCC4=CC(=O)CCC4=C3[C@@H](c3ccc(N(C)C)cc3)C[C@@]21C` [RU486, (11b,17b)-11-(4-(Dimethylamino)phenyl)-17-hydroxy-17-(1-propynyl)estra-4,9-dien-3-one], for which the “GC-mediated nuclearization (activation) of β-catenin” value with β-catenin is reported as “blocked”. Further, the “dexamethasone-mediated induction of LEF/TCF-mediated transcription” value in test [1] was “abolished”. The GCs-mediated c-myc activation result in the test on c-myc was “blocked”. Also, the “dexamethasone-mediated phosphorylation of GSK3β” value with GSK3β was “completely abolished; also recorded: block”.
For `COc1ccc2c(c1)CCC1C2CC[C@@]2(C)C1CC[C@@H]2NCCCCCCN1C(=O)C=CC1=O` (stereo partly drawn) [U-73122], the “dexamethasone-mediated phosphorylation of GSK3β” value in the test on GSK3β is “inhibits”. Moreover, the IC50 in the test on PLC was 1 to 2.1 µM.
